Patent US20240391862A1, “(1,4,5-TRISUBSTITUTED-1H-PYRAZOL-3-YL)OXY-2-ALKOXY ALKYL ACIDS AND THEIR DERIVATIVES, THEIR SALTS AND THEIR USE AS HERBICIDAL AGENTS” (Bayer AKtiengesellschaft, priority 2021, published 2024)

Columns and labels:
LOLRI = experiment: Post-emergence herbicidal effect, greenhouse pot test; assay type: in vivo, Lolium rigidum; details: for pest or weed control at 320 g/ha: Lolium rigidum, 504 h, read-out: Post-emergence effect against LOLRI in %
Outline: (§1)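 Greenhouse pot plants in sandy loam receive a one-leaf-stage spray at 20 to 320 g/ha. Activity is assessed visually around 3 weeks afterwards on a 0–100% scale, where 100% means the plants have died.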

DIGSA = experiment: as above; assay type: in vivo, Digitaria sanguinalis; details: 320 g/ha, visual rating about 3 weeks after treatment; for pest or weed control at 320 g/ha: Digitaria sanguinalis, 504 h, read-out: Post-emergence effect against DIGSA
Outline: as §1

KCHSC = experiment: as above; assay type: in vivo
Outline: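 Greenhouse plants in sandy loam, sprayed post-emergence at the one-leaf stage (2–3 weeks after sowing) with WP or EC formulations in water plus 0.5% additive at 600 l/ha. Rates 20 to 320 g/ha. Activity rated visually after about 3 weeks against untreated controls (0% like control, 100% dead).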

ABUTH = experiment: as above; assay type: in vivo, Abutilon theophrasti; details: visual rating about 3 weeks after treatment; for pest or weed control at 320 g/ha: Abutilon theophrasti, 504 h, read-out: Post-emergence effect against ABUTH
Outline: as §1

ECHCG = experiment: as above; assay type: in vivo, Echinochloa crus-galli; details: for Post-emergence effect against ECHCG: 20 g/ha, visual rating about 3 weeks after treatment
Outline: as §1

PHBPU = experiment: as above; assay type: in vivo, Ipomoea purpurea; details: for pest or weed control at 320 g/ha: Ipomoea purpurea, 504 h, read-out: Post-emergence effect against PHBPU in %
Outline: as §1

AVEFA = experiment: as above; assay type: in vivo, Avena fatua; details: visual rating about 3 weeks after treatment
Outline: as §1

SETVI = experiment: as above; assay type: in vivo, Setaria viridis; details: for pest or weed control at 320 g/ha: Setaria viridis, 504 h, read-out: Post-emergence effect against SETVI in %
Outline: as §1

ZEAMX = experiment: Post-emergence herbicidal effect and crop plant compatibility, greenhouse pot test; assay type: in vivo, Zea mays; details: one-leaf stage, rated visually after about 3 weeks vs untreated controls; for plant injury at 20 g/ha: read-out: Post-emergence effect at 20 g/ha against ZEAMX in %; for plant injury at 80 g/ha: read-out: Post-emergence effect at 80 g/ha against ZEAMX in %
Outline: (§2)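 Sandy loam pots, greenhouse. One-leaf stage (2–3 wk after sowing) foliar spray; WP/EC in water + 0.5% additive, 600 l/ha; 20–320 g/ha. Visual score ~3 wk, 0–100% vs untreated.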

VERPE = experiment: Post-emergence herbicidal effect, greenhouse pot test; assay type: in vivo, Veronica persica; details: for pest or weed control at 320 g/ha: Veronica persica, 504 h, read-out: Post-emergence effect against VERPE in %
Outline: as §1

POLCO = experiment: as above; assay type: in vivo, Fallopia convolvulus
Outline: as §1

ALOMY = experiment: as above; assay type: in vivo, Alopecurus myosuroides; details: visual rating about 3 weeks after treatment; for pest or weed control at 320 g/ha: Alopecurus myosuroides, 504 h, read-out: Post-emergence effect against ALOMY
Outline: as §1

TRZAS = experiment: Post-emergence herbicidal effect and crop plant compatibility, greenhouse pot test; assay type: in vivo, Triticum aestivum; details: 20 g/ha, one-leaf stage, rated visually after about 3 weeks vs untreated controls; for percent crop injury (phytotoxicity) to wheat, post-emergence at 20 g/ha: Triticum aestivum, 504 h, read-out: Post-emergence effect at 20 g/ha against TRZAS in %
Outline: as §2

AMARE = experiment: Post-emergence herbicidal effect, greenhouse pot test; assay type: in vivo, Amaranthus retroflexus; details: visual rating about 3 weeks after treatment; for Post-emergence effect against AMARE / pest or weed control at 320 g/ha: 320 g/ha
Outline: as §1

VIOTR = experiment: as above; assay type: in vivo, Viola tricolor
Outline: as §1

MATIN = experiment: as above; assay type: in vivo, Tripleurospermum inodorum; details: 320 g/ha
Outline: as §1

[1] = 504 h, 320 g/ha, read-out: Post-emergence effect against KCHSC in %
[2] = Echinochloa crus-galli, 504 h, 320 g/ha, read-out: Post-emergence effect against ECHCG in %
[3] = Fallopia convolvulus, 504 h, 320 g/ha, read-out: Post-emergence effect against POLCO in %
[4] = Amaranthus retroflexus, 504 h, read-out: Post-emergence effect against AMARE
[5] = Viola tricolor, 504 h, 320 g/ha, read-out: Post-emergence effect against VIOTR in %

Structure (SMILES)	Post-emergence effect against LOLRI in % (LOLRI; 320 g/ha) [%]	Post-emergence effect against DIGSA (DIGSA) [%]	pest or weed control at 320 g/ha (KCHSC; [1]) [%]	Post-emergence effect against ABUTH (ABUTH; 320 g/ha) [%]	Post-emergence effect against ECHCG in % (ECHCG; 320 g/ha) [%]	Post-emergence effect against PHBPU in % (PHBPU; 80 g/ha) [%]	Post-emergence effect against PHBPU in % (PHBPU; 320 g/ha) [%]	Post-emergence effect against AVEFA (AVEFA; 320 g/ha) [%]	Post-emergence effect against SETVI in % (SETVI; 320 g/ha) [%]	Post-emergence effect at 20 g/ha against ZEAMX in % (ZEAMX) [%]	Post-emergence effect against VERPE in % (VERPE; 320 g/ha) [%]	Post-emergence effect against POLCO in % (POLCO; 80 g/ha) [%]	Post-emergence effect against POLCO in % (POLCO; 320 g/ha) [%]	Post-emergence effect against ALOMY (ALOMY; 320 g/ha) [%]	percent crop injury (phytotoxicity) to wheat, post-emergence at 20 g/ha (TRZAS) [%]	Post-emergence effect against AMARE (AMARE) [%]	Post-emergence effect against VIOTR in % (VIOTR; 320 g/ha) [%]	plant injury at 80 g/ha (ZEAMX; Zea mays, 504 h) [%]	Post-emergence effect against KCHSC in % (KCHSC; 320 g/ha) [%]	Post-emergence effect against ECHCG in % (ECHCG; 80 g/ha) [%]	other results
COC(=O)C(OC)Oc1nn(-c2ncccc2F)c(-c2ccc(F)nc2)c1C1CC1 (centres unmarked) [Example I-107]	90	80	90	80	90	80	80	90	90	0	80	90	90	100	20	80	90	–	–	–	Post-emergence effect at 80 g/ha against ZEAMX in % (ZEAMX): 0%
CCOC(=O)C(OC)Oc1nn(-c2cnccn2)c(-c2ccc(F)nc2)c1Cl (centres unmarked) [Example I-46]	–	–	90	–	–	–	–	–	–	–	–	–	–	–	0	–	–	20	–	–	pest or weed control at 320 g/ha (LOLRI; 320 g/ha): 90%; pest or weed control at 320 g/ha (DIGSA): 80%; pest or weed control at 80 g/ha (KCHSC; 504 h, 80 g/ha, read-out: Post-emergence effect against KCHSC in %): 80%; pest or weed control at 320 g/ha (ABUTH; 320 g/ha): 80%; pest or weed control at 80 g/ha (ECHCG; Echinochloa crus-galli, 504 h, 80 g/ha, read-out: Post-emergence effect against ECHCG in %): 80%; pest or weed control at 320 g/ha (ECHCG; [2]): 90%; pest or weed control at 320 g/ha (PHBPU; 320 g/ha): 90%; pest or weed control at 320 g/ha (SETVI; 320 g/ha): 90%; plant injury at 20 g/ha (ZEAMX; Zea mays, 504 h): 0%; pest or weed control at 320 g/ha (VERPE; 320 g/ha): 90%; pest or weed control at 320 g/ha (POLCO; [3]): 80%; pest or weed control at 320 g/ha (ALOMY; 320 g/ha): 90%; pest or weed control at 80 g/ha (AMARE; Amaranthus retroflexus, 504 h, 80 g/ha, read-out: Post-emergence effect against AMARE): 80%; pest or weed control at 320 g/ha (AMARE; [4]): 80%; pest or weed control at 80 g/ha (VIOTR; Viola tricolor, 504 h, 80 g/ha, read-out: Post-emergence effect against VIOTR in %): 90%; pest or weed control at 320 g/ha (VIOTR; [5]): 90%
COC(=O)CCOC(=O)C(OC)Oc1nn(-c2ncccc2F)c(-c2ccc(F)nc2)c1C1CC1 (single isomer, unassigned) [Example I-88]	90	80	–	80	90	–	90	90	90	0	90	90	90	90	–	80	90	–	80	90	Post-emergence effect against LOLRI in % (LOLRI; 80 g/ha): 90%; Post-emergence effect against KCHSC in % (KCHSC; 80 g/ha): 80%; Post-emergence effect against ECHCG (ECHCG): 80%; Post-emergence effect against AVEFA (AVEFA; 80 g/ha): 90%; Post-emergence effect at 80 g/ha against ZEAMX in % (ZEAMX): 0%; Post-emergence effect at 320 g/ha against ZEAMX in % (ZEAMX; 320 g/ha): 0%; Post-emergence effect against POLCO in % (POLCO; 20 g/ha): 80%; Post-emergence effect against ALOMY (ALOMY; 80 g/ha): 90%; Post-emergence effect at 20 g/ha against TRZAS in % (TRZAS): 20%; Post-emergence effect against VIOTR in % (VIOTR; 80 g/ha): 80%
COC(Oc1nn(-c2ncccc2F)c(-c2cncc(F)c2)c1C1CC1)C(=O)O (centres unmarked) [Example I-85]	90	90	–	90	90	90	90	90	90	0	90	90	90	90	0	80	90	20	90	90	Post-emergence effect against LOLRI in % (LOLRI; 80 g/ha): 80%; Post-emergence effect against KCHSC in % (KCHSC; 80 g/ha): 90%; Post-emergence effect against ABUTH (ABUTH; 80 g/ha): 80%; Post-emergence effect against ECHCG (ECHCG): 90%; Post-emergence effect against PHBPU in % (PHBPU; 20 g/ha): 80%; Post-emergence effect against AVEFA (AVEFA; 80 g/ha): 90%; Post-emergence effect against SETVI in % (SETVI; 80 g/ha): 90%; pest or weed control at 20 g/ha (POLCO; Fallopia convolvulus, 504 h, 20 g/ha, read-out: Post-emergence effect against POLCO in %): 80%; Post-emergence effect against VIOTR in % (VIOTR; 80 g/ha): 80%
CCOC(Oc1nn(-c2ccccc2F)c(-c2ccc(F)nc2)c1Cl)C(=O)OCCC(=O)OC (centres unmarked) [Example I-53]	90	90	–	80	90	90	90	90	90	0	90	80	80	100	–	80	80	–	80	90	Post-emergence effect against MATIN in % (MATIN): 80%; Post-emergence effect against VERPE in % (VERPE; 80 g/ha): 80%; Post-emergence effect at 20 g/ha against TRZAS in % (TRZAS): 0%; Post-emergence effect against VIOTR in % (VIOTR; 80 g/ha): 80%
COC(Oc1nn(-c2cnccn2)c(-c2ccc(F)nc2)c1Cl)C(=O)O (centres unmarked) [Example I-42, {[4-Chloro-5-(6-fluoropyridin-3-yl)-1-(pyrazin-2-yl)-1H-pyrazol-3-yl]oxy}(methoxy)acetic acid]	–	–	90	–	–	–	–	–	–	–	–	–	–	–	0	–	–	0	–	–	pest or weed control at 320 g/ha (LOLRI; 320 g/ha): 90%; pest or weed control at 320 g/ha (DIGSA): 90%; pest or weed control at 320 g/ha (ABUTH; 320 g/ha): 80%; pest or weed control at 320 g/ha (ECHCG; [2]): 90%; pest or weed control at 320 g/ha (PHBPU; 320 g/ha): 80%; pest or weed control at 320 g/ha (SETVI; 320 g/ha): 80%; plant injury at 20 g/ha (ZEAMX; Zea mays, 504 h): 0%; plant injury at 320 g/ha (ZEAMX; Zea mays, 504 h, 320 g/ha, read-out: Post-emergence effect at 320 g/ha against ZEAMX in %): 20%; pest or weed control at 320 g/ha (VERPE; 320 g/ha): 80%; pest or weed control at 320 g/ha (POLCO; [3]): 80%; pest or weed control at 320 g/ha (ALOMY; 320 g/ha): 90%; pest or weed control at 320 g/ha (AMARE; [4]): 80%; pest or weed control at 320 g/ha (VIOTR; [5]): 90%
